From patent US7563793B2, “Pyrrolo[1,2-a]quinoxalin-5-(4H)-yl)sulfonyls and carbonyls and their use as estrogenic agents” (Wyeth, priority 2004, dated 2009)

Assays:
[1] = system: IL-6; experiment: IL-6 assay (ELISA) in Ad5-wt-ER infected HAECT-1 cells (IL-1β induced); format: cell-based, human; settings: Homo sapiens; for IC50: HAECT1; for Emax: HAECT1, relative to maximal inhibition observed with E2, read-out: IL-6 Efficacy
Method: (§1) After four hours, cells were washed with EBM-BSA and incubated overnight in the same medium. […] After two hours, cells were washed and incubated at 34° C. for 1 hour. […] Control (no ER infection) cells were processed as above without Ad5-wt-hERα virus infection. […] Cells were subsequently washed with 300 μl of Dulbecco's phosphate buffered saline and lysed in 50 μl of Cell Culture Lysis Reagent (Promega). Luciferase was determined on a Wallac Victor^2 Luminometer (Gaithersburg, Md.) using 10 μl of lysate and mixing with 100 lμof Promega Luciferase Assay reagent. […] For IC50 and EC50 calculations, mean IL-6, luciferase or CK values versus log10 of the compound concentration were fitted to a four parameter logistic equation. The IC50/EC50 value, ‘Hill slope’, upper and lower limits of the curve were iteratively estimated.

[2] = system: creatine kinase; experiment: Creatine kinase assay in Ad5-wt-ER infected HAECT-1 cells; format: cell-based, human; settings: Homo sapiens; for EC50: HAECT1, CK stimulation, N/O = activity not observed at concentrations tested, read-out: CK IC50; for Emax: HAECT1, relative to maximal stimulation observed with E2, read-out: CK Efficacy
Method: as §1

[3] = system: ER/Nf-kB; experiment: ER/NF-κB luciferase reporter assay in Ad5-wt-ER infected HAECT-1 cells (IL-1β induced); format: cell-based, human; settings: for IC50: Homo sapiens, HAECT1; for ER/Nf-kB Efficacy: relative to maximal inhibition observed with E2
Method: as §1

Compound	IC50 [1]	Emax [1]	EC50 [2]	Emax [2]	melting point	IC50 [3]	ER/Nf-kB Efficacy [3]
CC[C@H]1c2cccn2-c2c(cc(F)c(F)c2F)N1S(=O)(=O)c1ccc(O)cc1 [97 (S), 4-{[(4S)-4-ethyl-7,8,9-trifluoropyrrolo[1,2-a]quinoxalin-5(4H)-yl]sulfonyl}phenol]	9 nM	134%	31 nM	37%	155 to 156 °C	–	–
C[C@@H]1c2cccn2-c2ccc(F)cc2N1C(=O)c1ccc(O)cc1 [123 (R), 4-{[(4R)-7-fluoro-4-methylpyrrolo[1,2-a]quinoxalin-5(4H)-yl]carbonyl}phenol]	23 nM	112%	198 nM	27%	125 to 129 °C	–	–
CCC1c2ccc(C#N)n2-c2ccc(C(F)(F)F)cc2N1S(=O)(=O)c1ccc(O)c(C)c1 (centres unmarked) [Example 59, 4-ethyl-5-[(4-hydroxy-3-methylphenyl)sulfonyl]-7-(trifluoromethyl)-4,5-dihydropyrrolo[1,2-a]quinoxaline-1-carbonitrile]	–	–	3000 nM	-13%	194 to 196 °C	9700 nM	75%
CCC1c2ccc(C#N)n2-c2ccc(F)cc2N1S(=O)(=O)c1ccc(O)c(C)c1 (centres unmarked) [Example 33, 4-ethyl-7-fluoro-5-[(4-hydroxy-3-methylphenyl)sulfonyl]-4,5-dihydropyrrolo[1,2-a]quinoxaline-1-carbonitrile]	–	–	–	–	192 to 194 °C	1320 nM	208%
CCC1c2cccn2-c2ccc(F)cc2N1S(=O)(=O)c1cccc(O)c1 (centres unmarked) [Example 87, 3-[(4-ethyl-7-fluoropyrrolo[1,2-a]quinoxalin-5(4H)-yl)sulfonyl]phenol]	41 nM	112%	205 nM	33%	153 to 154 °C	–	–
CC[C@H]1c2ccc(C#N)n2-c2cc(F)c(F)cc2N1S(=O)(=O)c1ccc(O)cc1 [101 (S), (4S)-4-ethyl-7,8-difluoro-5-[(4-hydroxyphenyl)sulfonyl]-4,5-dihydropyrrolo[1,2-a]quinoxaline-1-carbonitrile]	424 nM	131%	91 nM	30%	191 to 192 °C	–	–
CC[C@H]1c2ccc(C#N)n2-c2cc(F)c(F)cc2N1S(=O)(=O)c1ccc(OS(N)(=O)=O)c(C)c1 [Example 103, 4-{[(4S)-1-cyano-4-ethyl-7,8-difluoropyrrolo[1,2-a]quinoxalin-5(4H)-yl]sulfonyl}-2-methylphenyl sulfamate]	101 nM	93%	34 nM	-18%	204 to 207 °C	–	–
CCC1c2cccn2-c2ccc(F)cc2N1C(=O)c1ccc(O)cc1 (centres unmarked) [Example 118, 4-[(4-ethyl-7-fluoropyrrolo[1,2-a]quinoxalin-5(4H)-yl)carbonyl]phenol]	3 nM	95%	20 nM	32%	165 to 167 °C	–	–
CC[C@@H]1c2ccc(C#N)n2-c2ccc(Br)cc2N1S(=O)(=O)c1ccc(O)cc1 [Example 91, (4R)-7-bromo-4-ethyl-5-[(4-hydroxyphenyl)sulfonyl]-4,5-dihydropyrrolo[1,2-a]quinoxaline-1-carbonitrile]	1460 nM	86%	–	-4%	182 to 185 °C	–	–
CCC1c2cccn2-c2c(cc(F)c(F)c2F)N1S(=O)(=O)c1ccc(O)cc1 (centres unmarked) [Example 98, 4-[(4-ethyl-7,8,9-trifluoropyrrolo[1,2-a]quinoxalin-5(4H)-yl)sulfonyl]phenol]	92 nM	117%	–	–	175 to 176 °C	–	–
CC[C@H]1c2ccc(C#N)n2-c2cc(F)c(F)cc2N1S(=O)(=O)c1ccc(OS(N)(=O)=O)cc1 [Example 104, 4-{[(4S)-1-cyano-4-ethyl-7,8-difluoropyrrolo[1,2-a]quinoxalin-5(4H)-yl]sulfonyl}phenyl sulfamate]	178 nM	110%	–	–	196 to 201 °C	–	–
CC[C@H]1c2ccc(C#N)n2-c2ccc(Br)cc2N1S(=O)(=O)c1ccc(O)cc1 [Example 89, (4S)-7-bromo-4-ethyl-5-[(4-hydroxyphenyl)sulfonyl]-4,5-dihydropyrrolo[1,2-a]quinoxaline-1-carbonitrile]	150 nM	188%	9.9 nM	7%	189 to 191 °C	–	–
CCC1c2ccc(C#N)n2-c2cc(F)c(F)cc2N1S(=O)(=O)c1ccc(O)cc1 (centres unmarked) [Example 93, 4-ethyl-7,8-difluoro-5-[(4-hydroxyphenyl)sulfonyl]-4,5-dihydropyrrolo[1,2-a]quinoxaline-1-carbonitrile]	299 nM	105%	–	–	205 °C	–	–
CC[C@@H]1c2cccn2-c2cc(F)c(F)cc2N1S(=O)(=O)c1ccc(O)c(C)c1 [102 (R), 4-{[(4R)-4-ethyl-7,8-difluoropyrrolo[1,2-a]quinoxalin-5(4H)-yl]sulfonyl}-2-methylphenol]	448 nM	117%	1770 nM	31%	160 to 162 °C	–	–
CC[C@@H]1c2cccn2-c2ccc(F)cc2N1C(=O)c1cccc(O)c1 [127 (R), 3-{[(4R)-4-ethyl-7-fluoropyrrolo[1,2-a]quinoxalin-5(4H)-yl]carbonyl}phenol]	62 nM	132%	159 nM	35%	115 to 116 °C	–	–
CCC1c2ccc(C#N)n2-c2cc(F)c(F)cc2N1S(=O)(=O)c1ccc(O)c(C)c1 (centres unmarked) [Example 12, 4-ethyl-7,8-difluoro-5-[(4-hydroxy-3-methylphenyl)sulfonyl]-4,5-dihydropyrrolo[1,2-a]quinoxaline-1-carbonitrile]	–	–	–	–	201 to 203 °C	1820 nM	91%
CCC1c2ccc(C#N)n2-c2ccc(F)cc2N1S(=O)(=O)c1ccc(O)cc1 (centres unmarked) [Example 35, 4-ethyl-7-fluoro-5-[(4-hydroxyphenyl)sulfonyl]-4,5-dihydropyrrolo[1,2-a]quinoxaline-1-carbonitrile]	–	–	107 nM	19%	169 to 171 °C	962 nM	72%
CC[C@H]1c2cccn2-c2ccc(Br)cc2N1S(=O)(=O)c1ccc(O)cc1 [Example 77, 4-{[(4S)-7-bromo-4-ethylpyrrolo[1,2-a]quinoxalin-5(4H)-yl]sulfonyl}phenol]	–	–	212 nM	39%	187 to 189 °C	11 nM	186%
CCC1c2cccn2-c2cc(O)c(F)cc2N1S(=O)(=O)c1ccc(O)c(C)c1 (centres unmarked) [Example 74, 4-ethyl-7-fluoro-5-[(4-hydroxy-3-methylphenyl)sulfonyl]-4,5-dihydropyrrolo[1,2-a]quinoxalin-8-ol]	–	–	–	–	194 to 196 °C	157 nM	75%
CC[C@@H]1c2cccn2-c2ccc(Cl)cc2N1C(=O)c1ccc(O)cc1O [125 (R), 4-{[(4R)-7-chloro-4-ethylpyrrolo[1,2-a]quinoxalin-5(4H)-yl]carbonyl}benzene-1,3-diol]	0.4 nM	120%	–	–	213 to 214 °C	–	–
CC[C@@H]1c2cccn2-c2ccc(Br)cc2N1S(=O)(=O)c1ccc(O)cc1 [Example 78, 4-{[(4R)-7-bromo-4-ethylpyrrolo[1,2-a]quinoxalin-5(4H)-yl]sulfonyl}phenol]	1100 nM	40%	–	–	187 to 189 °C	–	–
CCC1c2ccc(C#N)n2-c2cc(F)c(F)cc2N1S(=O)(=O)c1cccc(O)c1 (centres unmarked) [Example 85, 4-ethyl-7,8-difluoro-5-[(3-hydroxyphenyl)sulfonyl]-4,5-dihydropyrrolo[1,2-a]quinoxaline-1-carbonitrile]	696 nM	112%	–	–	179 to 182 °C	–	–
CCC1c2cccn2-c2c(cc(F)c(F)c2F)N1S(=O)(=O)c1cccc(O)c1 (centres unmarked) [Example 100, 3-[(4-ethyl-7,8,9-trifluoropyrrolo[1,2-a]quinoxalin-5(4H)-yl)sulfonyl]phenol]	14 nM	193%	99 nM	42%	143 to 145 °C	–	–
CC[C@H]1c2ccc(C#N)n2-c2cc(F)c(F)cc2N1S(=O)(=O)c1ccc(O)c(C)c1 [Example 11B, (S)-4-ethyl-7,8-difluoro-5-[(4-hydroxy-3-methylphenyl)sulfonyl]-4,5-dihydropyrrolo[1,2-a]quinoxaline-1-carbonitrile]	–	–	830 nM	96%	208 to 210 °C	332 nM	96%
